Key:
NF-κB (p65) = assay: Inhibition of blue light-induced NF-κB activation (p65 Western immunoblotting); type: cell-based, human; conditions: A2E and blue light; 10 and 25 μM; FIG. 4
Description: When cells are stimulated by external pathogenic molecules (PAMPs), NF-κB dimers (p50-p65 dimers) are separated from IκB and activated. The separated NF-κB dimers pass through the nuclear membrane and enter the nucleus, where they bind to DNA and activate gene transcription, indicating the activation of NF-κB. Therefore, the inhibitory effect of the compound of the present invention on NF-κB activation can be evaluated by measuring changes in the cytoplasmic or nuclear levels of p65. The experiment was conducted as follows.
ARPE-19 cells were seeded in 6-well plates at a concentration of 2×10^4 cells/well and cultured for 24 hours. In order to induce A2E accumulation in the ARPE-19 cell line, cells were treated with A2E three times at a concentration of 25 μM at 48-hour intervals. 24 hours after the final A2E treatment, cells were treated with compound 17 of the present invention twice at concentrations of 10 and 25 μM at 24-hour intervals, respectively. […] The level of p65 was measured by Western immunoblotting using anti-p65 antibody (Cell Signaling Technology, MA, USA). The cytoplasmic and nuclear fractions were measured by Western immunoblotting in the same manner as above using antibodies against α-tubulin (Cell Signaling Technology) and histone H3 (Abcam, Cambridge, UK) as internal controls, respectively.

LC3-II (autophagy flux) = assay: Autophagy flux in A2E-accumulated ARPE-19 with or without bafilomycin; type: cell-based, human; conditions: A2E 25 μM 24 h; 10, 25, 50 μM, 12 h; bafilomycin 2 nM 4 h; FIG. 9
Method: It was measured whether example 17 compound of the present invention increases autophagy flux in the ARPE-19 cell line in which A2E is accumulated. That is, the ARPE-19 cell line was dispensed into a 6-well plate at a concentration of 1×10^5 cells/well and cultured for 24 hours. The cells were treated with A2E at a concentration of 25 μM for 24 hours. The cells were treated with example 17 compound of the present invention at concentrations of 10, 25, and 50 μM for 12 hours each. The method of treating with bafilomycin (2 nM for 4 hours), preparing cell lysate, and measuring LC3-II by Western method was the same as in Experimental Example 8.

A2E-BDP in ARPE-19 cells = assay: Removal of A2E-BDP by concentration, fluorescence and phase contrast microscopy; type: cell-based, human
Method: ARPE-19 cell line was dispensed into a 24-well plate at a concentration of 4×10^4 cells/well and cultured for 24 hours. In order to induce A2E-BDP accumulation in ARPE-19 cell line, the cells were treated with […] of 10 μM for 24 hours. The A2E-BDP-containing ARPE-19 cells were treated with compound 17 (10, 25, 50 μM) for 24 hours. The level of A2E-BDP in each cell was measured as a fluorescence image at 510 nm using a Nikon Eclipse Ti—U fluorescence microscope (Tokyo, Japan). In addition, the change in cell number according to compound treatment was observed using a general phase contrast microscope, and the results are shown in FIG. 1. Meanwhile, lutein was used as a control substance.

[1] = test system: A2E-BDP present in human retinal pigment epithelial cells (ARPE-19); assay: Screening of ability to remove A2E-fluorescent labeling substance (A2E-BDP), lysate fluorescence; type: cell-based; conditions: ARPE-19, 24 h, ARPE-19 loaded with 10 μM A2E-BDP 24 h, test compound 50 μM once, fluorescence ex 485/em 535 nm, read-out: Capacity (%) to remove A2E-BDP at 50 μM
Method: The human retinal pigment epithelial cell line (ARPE-19) used in the experiment was provided by ATCC (American Type Culture Collection). The ARPE-19 cell line was cultured in DMEM medium containing 10% FBS. After culture, the cells were dispensed into 96-well plates at a concentration of 4×10^3 cells/well and cultured for 24 hours. The ARPE-19 cell line was treated with A2E-fluorescent labeling substance (A2E-BDP) at a concentration of 10 μM for 24 hours to induce the accumulation of A2E-BDP in the ARPE-19 cell line.
In order to evaluate the intracellular A2E removal ability of the compound of the present invention, an easily detectable A2E-fluorescent labeling substance (A2E-BDP) was used. The ARPE-19 cells prepared by the above method were treated with each test compound at a concentration of 50 μM once, and then cultured for 24 hours. The cells were lysed by adding a cell lysis buffer containing a protease inhibitor (50 mM Tris-chloride, pH 8.0, 150 mM sodium chloride, 1% NP-40, 1% sodium deoxycholate, 1% sodium dodecyl sulfate, and 2 mM ethylenediamine tetraacetic acid) to each 96-well. The prepared cell lysate was transferred to a white 96-well plate, and the fluorescence intensity was measured using a fluorescence microplate reader (VICTOR™ X3, Perkin Elmer, USA) (excitation 485 nm, emission 535 nm).

LC3-II = assay: Autophagy activation in A2E-accumulated ARPE-19 (LC3-II Western); type: cell-based, human; conditions: 25, 50, 100 μM, 12 h; FIG. 8
Method: A2E is known to inhibit intracellular autophagy. Therefore, it was measured whether example 17 compound of the present invention also increases autophagy in ARPE-19 cell lines accumulating A2E.
Specifically, ARPE-19 cell lines were dispensed into 6-well plates at a concentration of 1×10^5 cells/well and cultured for 24 hours. The cells were treated with A2E at a concentration of […] for 24 hours. Thereafter, the cells were treated with example 17 compound of the present invention at concentrations of 25, 50, and 100 μM for 12 hours each. Thereafter, cell lysate preparation and measurement of LC3-II by Western immunoblotting were performed in the same manner as in Experimental Example 7, and the results are shown in FIG. 8.

C=CCOCc1cc(-c2cc(CC=C)ccc2OC)no1 [Example 17, 3-(5-allyl-2-methoxyphenyl)-5-((allyloxy)methyl)isoxazole]
activation of NF-κB (movement of p65 into the nucleus) (NF-κB (p65)): activation of NF-κB was inhibited
autophagy flux in A2E-accumulated ARPE-19 (LC3-II (autophagy flux)): significantly increased the autophagy flux
cytotoxicity against ARPE-19 cells (cell number, phase contrast microscope) (A2E-BDP in ARPE-19 cells; 10, 25, 50 μM, 24 h): no cytotoxicity
A2E-BDP fluorescence intensity (fluorescence microscope) (A2E-BDP in ARPE-19 cells; ARPE-19 with A2E-BDP, 10, 25, 50 μM, 24 h, FIG. 1): a decrease in fluorescence intensity was observed in a concentration-dependent manner
A2E-BDP removal ability compared with lutein (A2E-BDP in ARPE-19 cells; FIG. 1): better A2E-BDP removal ability than lutein
inhibition at 50 µM [1]: ≥ 60%
LC3-II level in A2E-accumulated ARPE-19 (LC3-II): an increase in LC3-II

Source: US20250214951A1, “3-PHENYLISOXAZOLE DERIVATIVE, AND PHARMACEUTICAL COMPOSITION FOR PREVENTING OR TREATING EYE DISEASE, CONTAINING SAME AS ACTIVE INGREDIENT” (VASTHERA CO., LTD., priority 2022, published 2025)
